Where two headings read alike, the source gives them in different places.
Legend:
[1] = test system: OVISE (JCRB1043, CCNE1-amplified); experiment: OVISE EdU incorporation cell proliferation assay (CDK2-dependent); type: cell-based; conditions: for IC50: cellular assay, read-out: CDK2 OVISE IC50; for FS SKOV-3/OVISE: fold selectivity; for improvement in CDK2 OVISE cell potency over Comparator C: in brackets after OVISE IC50, Comparator C 5.5 μM
Experimental: (§1) (i) OVISE and SKOV-3 EdU Incorporation Cell Proliferation Assays
(§2) Ovarian cancer cell proliferation is measured by incorporation of EdU (5-ethynyl-2′-deoxyuridine) into newly synthesized DNA. CDK2-dependent proliferation is determined using OVISE (JCRB1043, CCNE1-amplified) while CDK4/6-dependent effect is determined with SKOV-3 (ATCC HTB-77) which is not CCNE1-amplified.
(§3) Cells are plated in 384-well plates in RPMI medium supplemented with 10% FBS. Compounds are added at desired concentrations with a final DMSO content of 0.5%, and cells incubated at 37° C./5% CO2 for 16 hours. EdU (Life Technologies) is added to a final concentration of 0.5 μM and incubation continued for 8 hours, followed by fixation with 4% paraformaldehyde. […] Images are acquired using Yokogawa CQ1 imaging cytometer with a 10×objective. […] The IC50 for inhibition of cell division is determined by fitting the fraction of EdU-positive cells as a function of compound dose using a 4-parameter logistic model.

[2] = biological target: T1, Cyclin Dependent Kinase 4/Cyclin D3 (CDK4-cycD3) (Homo sapiens, UniProt P11802); experiment: CDK4-cycD3 TR-FRET (LANCE) enzyme assay; type: biochemical; conditions: for Ki: enzymatic assay; for FS CDK4/CDK2: fold selectivity, enzymatic Ki ratio
T1 construct: purchased Carna Biosciences 04-105
Experimental: (§4) Cyclin Dependent Kinase 1/Cyclin A2 (CDK1-cycA2), Cyclin Dependent Kinase 2/Cyclin E1 (CDK2-cycE1), Cyclin Dependent Kinase 4/Cyclin D3 (CDK4-cycD3) and Cyclin Dependent Kinase 6/Cyclin D3 (CDK6-cycD3) enzyme assays were carried out as described below.
(iii) CDK4-cycD3 TR-FRET (LANCE®)
(§5) An Echo acoustic dispenser is used to create dose responses of compound dissolved in DMSO into a 384-well microplate. A 5 μL volume of enzyme mix is added to the well, and pre-incubated with compound for 30 minutes. […] Buffer conditions are 50 mM HEPES, pH 7.5, 10 mM MgCl2, 2 mM TCEP, 0.05% BGG and 0.01% Brij 35. The reaction is quenched with 5 μL of EDTA in detection buffer (15 mM [EDTA final]). Finally, a 5 μL TR-FRET detection mix is added to the quenched reaction, which includes Europium labeled anti-phospho-4E-BP1. […] Signal is a ratio of the Acceptor and Donor fluorescence. Inhibition constants are calculated via the Morrison equation.

[3] = biological target: T2, Cyclin Dependent Kinase 1/Cyclin A2 (CDK1-cycA2) (Homo sapiens, UniProt P06493); experiment: CDK1-cycA2 TR-FRET (Lance) enzyme assay; type: biochemical; conditions: for Ki: enzymatic assay; for FS CDK1/CDK2: fold selectivity, enzymatic Ki ratio
T2 construct: purchased ProQinase 0134-0054-1
Experimental: as §4
(1) CDK1-cycA2 TR-FRET (Lance®)
as §5

[4] = biological target: T3, Cyclin Dependent Kinase 2/Cyclin E1 (CDK2-cycE1) (Homo sapiens, UniProt P24941); experiment: CDK2-cycE1 TR-FRET (LANCE) enzyme assay; type: biochemical; conditions: for FS CDK1/CDK2 / FS CDK4/CDK2: fold selectivity; for improvement in potency against CDK2 (Ki) over Comparator C: in brackets after CDK2 Ki, Comparator C 0.032 μM;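 for improvement in potency against CDK2 (Ki) over Comparator C: fold lower CDK2 Ki than comparator c (Ki 0.032 µM)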
T3 construct: purchased ProQinase 0050-0055-1
Experimental: as §4
(ii) CDK2-cycE1 TR-FRET (LANCE®)
as §5, with “anti-phospho-MBP.” for “anti-phospho-4E-BP1.”, “equation. Enzyme source of CDK2-cycE1 is ProQinase, catalog #: 0050-0055-1.” for “equation.”

[5] = test system: SKOV-3 (ATCC HTB-77); experiment: SKOV-3 EdU incorporation cell proliferation assay (CDK4/6-dependent); type: cell-based; conditions: for IC50: Homo sapiens, cellular assay, read-out: CDK4/6 SKOV-3 IC50; for FS SKOV-3/OVISE: fold selectivity, cellular IC50 ratio
Experimental: as §1, §2, §3

[6] = Table O, cellular SKOV-3 IC50 over OVISE IC50
[7] = Table O, enzymatic assay, read-out: CDK2 Ki
[8] = Table O, enzymatic CDK1 Ki over CDK2 Ki
[9] = Table O, enzymatic CDK4 Ki over CDK2 Ki
[10] = read-out: CDK2 activity / potency (enzymatic assay)
[11] = Table Q, enzymatic assay, read-out: CDK2 Ki

T1 sequence (P11802 whole entry): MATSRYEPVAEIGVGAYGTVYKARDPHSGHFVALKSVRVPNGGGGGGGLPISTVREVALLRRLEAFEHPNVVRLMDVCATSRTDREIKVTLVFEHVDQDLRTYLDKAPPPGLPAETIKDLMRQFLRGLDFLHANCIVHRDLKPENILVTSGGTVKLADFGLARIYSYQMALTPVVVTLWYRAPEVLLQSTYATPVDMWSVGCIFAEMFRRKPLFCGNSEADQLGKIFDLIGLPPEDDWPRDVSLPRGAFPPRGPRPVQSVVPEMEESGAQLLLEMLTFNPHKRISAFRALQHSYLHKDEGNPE
T1 sequence (P30281 whole entry partner): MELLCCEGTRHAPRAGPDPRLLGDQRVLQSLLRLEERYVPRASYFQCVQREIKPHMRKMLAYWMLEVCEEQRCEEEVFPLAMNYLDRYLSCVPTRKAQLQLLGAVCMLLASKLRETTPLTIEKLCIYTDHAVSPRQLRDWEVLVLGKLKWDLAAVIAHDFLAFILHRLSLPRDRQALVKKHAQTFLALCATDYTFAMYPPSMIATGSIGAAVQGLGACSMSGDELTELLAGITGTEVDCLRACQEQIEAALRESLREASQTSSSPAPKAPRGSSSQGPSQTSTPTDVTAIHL
T2 sequence (P06493 whole entry): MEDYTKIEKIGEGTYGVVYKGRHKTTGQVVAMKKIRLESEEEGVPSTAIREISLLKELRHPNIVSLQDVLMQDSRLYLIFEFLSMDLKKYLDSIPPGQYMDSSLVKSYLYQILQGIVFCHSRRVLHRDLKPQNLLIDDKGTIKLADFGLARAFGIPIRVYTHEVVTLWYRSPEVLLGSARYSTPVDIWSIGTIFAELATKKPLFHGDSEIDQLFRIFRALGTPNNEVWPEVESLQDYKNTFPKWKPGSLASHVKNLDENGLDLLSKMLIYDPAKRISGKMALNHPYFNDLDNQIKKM
T2 sequence (P20248 whole entry partner): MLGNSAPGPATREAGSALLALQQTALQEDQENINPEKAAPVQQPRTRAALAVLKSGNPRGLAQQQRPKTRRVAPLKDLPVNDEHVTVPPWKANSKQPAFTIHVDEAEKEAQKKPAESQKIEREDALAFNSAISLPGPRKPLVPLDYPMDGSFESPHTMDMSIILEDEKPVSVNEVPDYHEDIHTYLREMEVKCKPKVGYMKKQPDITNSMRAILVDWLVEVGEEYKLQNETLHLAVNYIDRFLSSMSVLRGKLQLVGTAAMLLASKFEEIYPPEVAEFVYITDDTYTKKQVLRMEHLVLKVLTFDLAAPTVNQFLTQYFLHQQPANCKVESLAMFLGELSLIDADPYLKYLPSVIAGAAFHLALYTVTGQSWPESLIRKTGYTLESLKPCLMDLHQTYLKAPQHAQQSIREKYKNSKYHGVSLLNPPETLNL

| SMILES | IC50 ([1]; Table O) [nM] | FS SKOV-3/OVISE [1, 6] | Ki ([2]; Table O) [nM] | Ki ([3]; Table O) [nM] | Ki [4, 7] [nM] | FS CDK1/CDK2 [4, 8] | FS CDK4/CDK2 [4, 9] | IC50 ([5]; SK-OV-3, Table O) [nM] | further results |
| --- | --- | --- | --- | --- | --- | --- | --- | --- | --- |
| CC[C@H](C)NC(=O)O[C@@H]1CC[C@H](c2cc(Nc3cccnn3)n[nH]2)C1 (single isomer, unassigned) [Example 3B] | 570 | 18 | 290 | 200 | 8.5 | 24 | 34 | 10000 | – |
| CC[C@@H](C)NC(=O)O[C@@H]1CC[C@H](c2cc(Nc3cccnn3)n[nH]2)C1 (single isomer, unassigned) [Example 3C] | 390 | 31 | 430 | 500 | 18 | 28 | 24 | 12000 | – |
| C[C@H](NC(=O)O[C@@H]1CC[C@H](c2cc(Nc3cccnn3)n[nH]2)C1)C(F)(F)F (single isomer, unassigned) [Example 5A] | 2200 | >9 | 2100 | 1700 | 63 | 27 | 33 | > 20000 | – |
| C[C@@H](NC(=O)O[C@@H]1CC[C@H](c2cc(Nc3cccnn3)n[nH]2)C1)C(F)(F)F (single isomer, unassigned) [Example 5B] | 2900 | >6.9 | 510 | 310 | 26 | 12 | 20 | > 20000 | – |
| CC(C)(C)NC(=O)O[C@@H]1CC[C@H](c2cc(Nc3ccc4c(n3)CCC4)n[nH]2)C1 [Comparator D, (1R,3S)-3-(3-((6,7-dihydro-5H-cyclopenta[b]pyridin-2-yl)amino)-1H-pyrazol-5-yl)cyclopentyl tert-butylcarbamate, reference compound] | – | – | – | – | – | – | – | – | IC50 ([1]; Table R): 3800 nM; Ki ([2]; Table R): 5.2 nM; FS CDK4/CDK2 ([2]; Table R): 1.9; Ki ([3]; Table R): 54 nM; FS CDK1/CDK2 ([3]; Table R): 20; Ki [4, 10]: 2.7 nM; IC50 ([5]; SK-OV-3, Table R): 1800 nM; FS SKOV-3/OVISE ([5]; Table R): 0.47 |
| CC(C)(C)NC(=O)O[C@@H]1CC[C@H](c2cc(Nc3ccccc3)n[nH]2)C1 [Comparator E, (1R,3S)-3-(3-(phenylamino)-1H-pyrazol-5-yl)cyclopentyl tert-butylcarbamate, reference compound] | – | – | – | – | – | – | – | – | IC50 ([1]; Table S): 170 nM; Ki ([2]; Table S): 23 nM; FS CDK4/CDK2 ([2]; Table S): 44; Ki ([3]; Table S): 33 nM; FS CDK1/CDK2 ([3]; Table S): 63; Ki ([4]; Table S, enzymatic assay, read-out: CDK2 Ki): 0.52 nM; Ki [4, 10]: 0.52 nM; IC50 ([5]; SK-OV-3, Table S): 2700 nM; FS SKOV-3/OVISE ([5]; Table S): 16 |
| CC(C)NC(=O)O[C@@H]1CC[C@H](c2cc(Nc3ccn(C)c(=O)c3)n[nH]2)C1 [Example 2AA, (1R,3S)-3-(3-((1-methyl-2-oxo-1,2-dihydropyridin-4-yl)amino)-1H-pyrazol-5-y1)cyclopenty1 isopropylcarbamate] | 4100 | >49 | 450 | 440 | 17 | 26 | 26 | > 20000 | increased fold-selectivity SKOV-3/OVISE over Comparator C ([1]; Table Q, (+) sign after FS SKOV-3/OVISE): (+) (The (+) sign in Table Q signifies desirable increased fold-selectivity of the exemplary compounds over Comparator C); FS SKOV-3/OVISE ([1]; Table Q, cellular): > 4.9; improvement in CDK2 OVISE cell potency over Comparator C ([1]; Table Q): 1.3 fold; increased fold-selectivity CDK4/CDK2 over Comparator C ([4]; Table Q, (+) sign after FS CDK4/CDK2): (+) (The (+) sign in Table Q signifies desirable increased fold-selectivity of the exemplary compounds over Comparator C); Ki [4, 11]: 17 nM; FS CDK1/CDK2 ([4]; Table Q, enzymatic): 26; FS CDK4/CDK2 ([4]; Table Q, enzymatic): 26; improvement in potency against CDK2 (Ki) over Comparator C ([4]; Table Q): 1.9 fold; IC50 ([5]; SK-OV-3, Table Q): > 20000 nM |
| CC(C)NC(=O)O[C@@H]1CC[C@H](c2cc(Nc3cccn(C)c3=O)n[nH]2)C1 [Example 2BB, (1R,3S)-3-(3-((1-methyl-2-oxo-1,2-dihydropyridin-3-yl)amino)-1H-pyrazol-5-y1)cyclopenty1 isopropylcarbamate] | > 20000 | 1.0 | 6900 | 32000 | 1100 | 29 | 6.3 | > 20000 | IC50 ([1]; Table Q): > 20000 nM; FS SKOV-3/OVISE ([1]; Table Q, cellular): 1.0; improvement in CDK2 OVISE cell potency over Comparator C ([1]; Table Q): 0.28 fold; Ki [4, 11]: 1100 nM; FS CDK1/CDK2 ([4]; Table Q, enzymatic): 29; FS CDK4/CDK2 ([4]; Table Q, enzymatic): 6.3; improvement in potency against CDK2 (Ki) over Comparator C ([4]; Table Q): 0.3 fold; IC50 ([5]; SK-OV-3, Table Q): > 20000 nM |
| Cn1c(Nc2cc([C@H]3CC[C@@H](OC(=O)NC(C)(C)C)C3)[nH]n2)ccnc1=O [Example 8A, (1R,3S)-3-(3-((3-methyl-2-oxo-2,3-dihydropyrimidin-4-yl)amino)-1H-pyrazol-5-yl)cyclopentyl tert-butylcarbamate] | 20000 | >1 | – | 11000 | 270 | 41 | 185 | > 20000 | – |
| Cn1c(Nc2cc([C@H]3CC[C@@H](OC(=O)NC45CC(C4)C5)C3)[nH]n2)nccc1=O [Example 9A, (1R,3S)-3-(3-((1-methyl-6-oxo-1,6-dihydropyrimidin-2-yl)amino)-1H-pyrazol-5-yl)cyclopentyl bicyclo[1.1.1]pentan-1-ylcarbamate] | – | – | 150 | – | – | – | – | 3000 | – |

Reference: patent US20240425478A1, “CYCLOPENTYLPYRAZOLE CDK2 INHIBITORS” (Genentech, Inc., priority 2021, published 2024)
